Assay results reported in patent US11697648B2, “Fused pyrimidine pyridinone compounds as JAK inhibitors” (THERAVANCE BIOPHARMA R&D IP, LLC, priority 2019, dated 2023).

Experiments:
JAK1 = JAK1 (Homo sapiens (Human), UniProt P23458); assay: Biochemical JAK1 kinase assay (LanthaScreen)
Outline: (§1)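 GST-JAK + GFP-STAT1 peptide, HEPES pH 7.5/MgCl2/EGTA/Brij-35 buffer; cpd preincubation 1 h RT; ATP start, 1 h RT; stop with 10 mM EDTA + 2 nM Tb-anti-pSTAT1; TR-FRET 520/495. 4-parameter IC50 → pKi (Cheng-Prusoff).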

JAK2 = JAK2 (Homo sapiens (Human), UniProt O60674); assay: Biochemical JAK2 kinase assay (LanthaScreen)
Outline: as §1

JAK3 = JAK3 (Homo sapiens (Human), UniProt P52333); assay: Biochemical JAK3 kinase assay (LanthaScreen); conditions: for JAK3 (pKi)-JAK1 (pKi): selectivity JAK3 over JAK1, difference of pKi
Outline: as §1

Tyk2 = Tyk2 (Homo sapiens (Human), UniProt P29597); assay: Biochemical Tyk2 kinase assay (LanthaScreen)
Outline: as §1

[1] = test system: IL-2 stimulated STAT5 phosphorylation in Tall-1 human T cell line (JAK3); assay: Cellular JAK3 potency assay: inhibition of IL-2 stimulated pSTAT5 in Tall-1 T cells; assay type: cell-based; conditions: IL-2 stimulated pSTAT5, Tall-1 T cells
Outline: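 Tall-1 cells, 45,000 per well, preincubated 1 hour with compound at 37 °C, then stimulated 30 minutes with IL-2 at 300 ng/ml final. pSTAT5 (Tyr694/699) in lysates quantified by AlphaLISA SureFire Ultra. pIC50 derived from inhibition curves, given as mean with SD.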

Caco-2 cell monolayers = assay: Caco-2 permeation assay; assay type: in vitro ADME; conditions: 5 μM, A-B direction, with Verapamil (25 μM)
Outline: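 Compounds tested at 5 μM in duplicate across Caco-2 monolayers, apical-to-basolateral, with 25 μM verapamil to block P-gp, at 37° C., 5% CO2. Apical and basal samples taken at 0 and 120 min, analysed by LC-MS/MS; Papp (cm/sec) calculated as dQ/(dt×Area×concentration).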

JAK1, sequence (P23458 whole entry): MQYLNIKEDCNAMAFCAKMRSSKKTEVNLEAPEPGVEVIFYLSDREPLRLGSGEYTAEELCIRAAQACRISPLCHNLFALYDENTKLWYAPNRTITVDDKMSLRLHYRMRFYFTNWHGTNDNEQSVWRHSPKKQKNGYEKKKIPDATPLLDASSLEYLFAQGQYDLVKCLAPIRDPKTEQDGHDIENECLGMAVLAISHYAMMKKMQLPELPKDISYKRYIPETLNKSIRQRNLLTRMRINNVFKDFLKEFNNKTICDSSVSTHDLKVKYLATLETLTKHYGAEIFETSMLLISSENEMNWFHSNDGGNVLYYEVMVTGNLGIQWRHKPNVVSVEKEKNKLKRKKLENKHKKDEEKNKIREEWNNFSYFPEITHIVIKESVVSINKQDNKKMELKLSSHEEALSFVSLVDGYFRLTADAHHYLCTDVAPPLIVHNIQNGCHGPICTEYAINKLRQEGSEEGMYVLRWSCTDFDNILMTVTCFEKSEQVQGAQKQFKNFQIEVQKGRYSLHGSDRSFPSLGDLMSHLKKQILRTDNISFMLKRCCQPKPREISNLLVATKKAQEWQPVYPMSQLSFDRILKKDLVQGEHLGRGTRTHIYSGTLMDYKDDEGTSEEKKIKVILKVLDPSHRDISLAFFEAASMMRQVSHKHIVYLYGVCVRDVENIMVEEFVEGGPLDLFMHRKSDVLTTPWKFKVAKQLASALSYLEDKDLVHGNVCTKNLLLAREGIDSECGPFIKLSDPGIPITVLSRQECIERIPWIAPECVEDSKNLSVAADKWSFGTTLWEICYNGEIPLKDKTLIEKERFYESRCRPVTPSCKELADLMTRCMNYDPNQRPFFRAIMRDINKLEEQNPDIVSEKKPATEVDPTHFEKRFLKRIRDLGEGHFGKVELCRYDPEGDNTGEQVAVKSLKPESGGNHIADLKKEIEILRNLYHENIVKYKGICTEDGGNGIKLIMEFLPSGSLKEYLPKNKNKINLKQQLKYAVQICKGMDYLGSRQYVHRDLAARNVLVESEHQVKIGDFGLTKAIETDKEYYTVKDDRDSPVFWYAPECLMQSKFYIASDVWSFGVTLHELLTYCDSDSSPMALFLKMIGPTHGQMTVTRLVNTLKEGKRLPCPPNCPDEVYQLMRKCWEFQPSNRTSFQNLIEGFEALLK
JAK2, sequence (O60674 whole entry): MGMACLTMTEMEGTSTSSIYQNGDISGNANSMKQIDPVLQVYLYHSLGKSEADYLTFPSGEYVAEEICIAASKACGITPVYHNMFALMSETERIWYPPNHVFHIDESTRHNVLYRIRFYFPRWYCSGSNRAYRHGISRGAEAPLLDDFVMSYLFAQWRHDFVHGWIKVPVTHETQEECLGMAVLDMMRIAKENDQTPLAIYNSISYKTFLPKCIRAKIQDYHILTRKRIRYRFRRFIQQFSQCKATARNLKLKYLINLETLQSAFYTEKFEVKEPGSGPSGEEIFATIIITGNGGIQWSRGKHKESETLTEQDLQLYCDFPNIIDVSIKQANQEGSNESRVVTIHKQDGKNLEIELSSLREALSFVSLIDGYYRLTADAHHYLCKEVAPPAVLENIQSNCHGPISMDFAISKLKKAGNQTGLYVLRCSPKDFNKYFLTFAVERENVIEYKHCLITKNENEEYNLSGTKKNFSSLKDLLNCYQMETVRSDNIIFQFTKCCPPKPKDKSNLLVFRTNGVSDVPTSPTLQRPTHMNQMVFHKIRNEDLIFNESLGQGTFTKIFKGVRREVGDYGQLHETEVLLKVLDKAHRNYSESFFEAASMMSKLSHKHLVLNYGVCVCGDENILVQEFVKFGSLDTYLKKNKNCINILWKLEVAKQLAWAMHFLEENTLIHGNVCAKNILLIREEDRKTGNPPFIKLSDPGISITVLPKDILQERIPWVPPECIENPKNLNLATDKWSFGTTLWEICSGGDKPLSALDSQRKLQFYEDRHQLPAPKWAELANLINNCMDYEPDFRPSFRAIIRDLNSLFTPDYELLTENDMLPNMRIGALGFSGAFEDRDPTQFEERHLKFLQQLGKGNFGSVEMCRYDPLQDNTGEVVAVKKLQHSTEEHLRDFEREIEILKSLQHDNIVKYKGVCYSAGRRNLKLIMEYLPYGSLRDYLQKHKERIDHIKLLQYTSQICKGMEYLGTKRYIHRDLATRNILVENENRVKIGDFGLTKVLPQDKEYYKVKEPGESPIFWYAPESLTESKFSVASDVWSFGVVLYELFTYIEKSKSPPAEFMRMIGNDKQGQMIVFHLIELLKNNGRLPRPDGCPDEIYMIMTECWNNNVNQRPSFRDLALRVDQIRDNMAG
JAK3, sequence (P52333 whole entry): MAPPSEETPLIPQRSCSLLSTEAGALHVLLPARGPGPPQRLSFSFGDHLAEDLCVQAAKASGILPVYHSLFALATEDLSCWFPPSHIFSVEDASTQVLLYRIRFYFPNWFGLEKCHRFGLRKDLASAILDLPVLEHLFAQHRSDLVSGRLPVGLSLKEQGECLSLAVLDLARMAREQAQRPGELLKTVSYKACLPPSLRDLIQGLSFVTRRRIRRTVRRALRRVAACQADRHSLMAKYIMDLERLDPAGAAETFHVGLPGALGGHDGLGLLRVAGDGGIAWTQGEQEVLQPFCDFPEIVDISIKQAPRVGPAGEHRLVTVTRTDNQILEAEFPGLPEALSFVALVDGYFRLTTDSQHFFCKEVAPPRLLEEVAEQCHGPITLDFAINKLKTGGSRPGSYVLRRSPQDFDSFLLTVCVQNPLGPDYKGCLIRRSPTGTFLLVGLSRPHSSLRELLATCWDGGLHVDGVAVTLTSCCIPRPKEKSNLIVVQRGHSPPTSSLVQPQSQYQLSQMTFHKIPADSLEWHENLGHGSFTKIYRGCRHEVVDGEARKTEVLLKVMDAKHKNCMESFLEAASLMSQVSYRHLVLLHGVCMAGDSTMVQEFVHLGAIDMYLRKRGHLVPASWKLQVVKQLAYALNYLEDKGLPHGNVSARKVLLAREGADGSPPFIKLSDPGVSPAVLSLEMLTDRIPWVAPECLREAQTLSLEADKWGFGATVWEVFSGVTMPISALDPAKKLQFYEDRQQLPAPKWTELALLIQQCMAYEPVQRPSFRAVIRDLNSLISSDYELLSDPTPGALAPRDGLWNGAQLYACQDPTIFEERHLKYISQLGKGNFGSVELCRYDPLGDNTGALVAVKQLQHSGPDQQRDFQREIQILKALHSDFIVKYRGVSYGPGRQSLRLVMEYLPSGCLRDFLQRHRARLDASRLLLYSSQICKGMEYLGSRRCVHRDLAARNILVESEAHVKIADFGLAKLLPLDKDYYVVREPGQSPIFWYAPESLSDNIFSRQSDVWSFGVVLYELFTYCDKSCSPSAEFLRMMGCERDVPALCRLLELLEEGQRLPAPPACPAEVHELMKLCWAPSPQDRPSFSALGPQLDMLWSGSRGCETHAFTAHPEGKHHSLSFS
Tyk2, sequence (P29597 whole entry): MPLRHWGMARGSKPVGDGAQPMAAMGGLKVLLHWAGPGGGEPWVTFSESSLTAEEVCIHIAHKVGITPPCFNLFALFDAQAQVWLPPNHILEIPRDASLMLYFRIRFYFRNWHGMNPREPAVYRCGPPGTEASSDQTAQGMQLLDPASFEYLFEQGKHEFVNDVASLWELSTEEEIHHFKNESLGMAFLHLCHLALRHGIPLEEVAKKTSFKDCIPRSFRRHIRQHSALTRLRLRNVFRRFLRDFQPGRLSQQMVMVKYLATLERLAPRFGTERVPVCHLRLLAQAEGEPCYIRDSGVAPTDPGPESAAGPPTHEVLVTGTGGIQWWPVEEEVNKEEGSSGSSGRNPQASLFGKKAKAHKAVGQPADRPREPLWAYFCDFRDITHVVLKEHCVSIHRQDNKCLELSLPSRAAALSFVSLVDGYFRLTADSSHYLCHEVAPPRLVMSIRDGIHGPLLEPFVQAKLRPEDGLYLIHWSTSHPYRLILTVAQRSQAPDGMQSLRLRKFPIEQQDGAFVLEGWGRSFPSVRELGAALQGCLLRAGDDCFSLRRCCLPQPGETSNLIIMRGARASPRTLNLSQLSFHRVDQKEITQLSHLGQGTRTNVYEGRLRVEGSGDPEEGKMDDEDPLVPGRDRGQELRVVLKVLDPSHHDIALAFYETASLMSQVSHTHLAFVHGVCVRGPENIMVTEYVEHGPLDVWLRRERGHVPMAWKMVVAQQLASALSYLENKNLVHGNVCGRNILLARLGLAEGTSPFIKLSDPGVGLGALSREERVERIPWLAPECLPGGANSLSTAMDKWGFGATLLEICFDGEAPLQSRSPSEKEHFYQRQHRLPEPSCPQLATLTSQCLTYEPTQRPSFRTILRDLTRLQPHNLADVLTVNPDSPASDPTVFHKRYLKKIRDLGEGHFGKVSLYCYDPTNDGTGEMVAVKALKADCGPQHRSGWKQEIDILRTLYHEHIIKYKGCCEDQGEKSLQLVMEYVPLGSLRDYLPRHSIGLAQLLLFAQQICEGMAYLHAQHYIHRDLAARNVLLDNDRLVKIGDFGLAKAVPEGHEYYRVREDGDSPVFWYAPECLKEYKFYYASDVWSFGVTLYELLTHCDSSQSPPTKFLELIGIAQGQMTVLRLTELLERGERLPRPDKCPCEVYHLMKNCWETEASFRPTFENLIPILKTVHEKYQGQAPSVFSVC

SMILES	JAK 1 (pKi) (JAK1)	JAK 2 (pKi) (JAK2)	JAK 3 (pKi) (JAK3)	JAK3 (pKi)-JAK1 (pKi) (JAK3)	Tyk 2 (pKi) (Tyk2)	Tall-1 (pIC50) [1]	Caco Kp (Caco-2 cell monolayers)
C=CC(=O)N1CC(CCn2c(=O)ccc3cnc(Nc4cnn(C5CCN(C)CC5)c4)nc32)C1 [Example 51]	E (E represents a pKi value of 7 or below (Ki of 100 nM or above))	E (E represents a pKi value of 7 or below (Ki of 100 nM or above))	B (B represents pKi value between 9 and 10 (Ki between 1 nM and 0.1 nM))	A (A represents a value of 3 or above)	E (E represents a pKi value of 7 or below (Ki of 100 nM or above))	B (B represents a pC50 value between 6.7 (included) and 7.5 (IC50 between 200 nM and 32 nM))	A (A represents a value below 5×10^−6 cm/sec)
C=CC(=O)N1CCN(C(C)Cn2c(=O)ccc3cnc(Nc4ccc(N5CCN(C(C)=O)CC5)cc4)nc32)CC1 (stereo not drawn) [Example 201]	E (E represents a pKi value of 7 or below (Ki of 100 nM or above))	E (E represents a pKi value of 7 or below (Ki of 100 nM or above))	B (B represents pKi value between 9 and 10 (Ki between 1 nM and 0.1 nM))	A (A represents a value of 3 or above)	E (E represents a pKi value of 7 or below (Ki of 100 nM or above))	B (B represents a pC50 value between 6.7 (included) and 7.5 (IC50 between 200 nM and 32 nM))	A (A represents a value below 5×10^−6 cm/sec)
C=CC(=O)N1CC(CCn2c(=O)ccc3cnc(Nc4ccc(NS(C)(=O)=O)cc4)nc32)C1 [Example 69]	E (E represents a pKi value of 7 or below (Ki of 100 nM or above))	E (E represents a pKi value of 7 or below (Ki of 100 nM or above))	A (A represents a pKi value≥10 (Ki≤0.1 nM))	A (A represents a value of 3 or above)	E (E represents a pKi value of 7 or below (Ki of 100 nM or above))	B (B represents a pC50 value between 6.7 (included) and 7.5 (IC50 between 200 nM and 32 nM))	A (A represents a value below 5×10^−6 cm/sec)
C=CC(=O)N1CC(CCn2c(=O)ccc3cnc(Nc4ccc(N5CCN(C(=O)CC#N)CC5)cc4)nc32)C1 [Example 72]	E (E represents a pKi value of 7 or below (Ki of 100 nM or above))	E (E represents a pKi value of 7 or below (Ki of 100 nM or above))	B (B represents pKi value between 9 and 10 (Ki between 1 nM and 0.1 nM))	A (A represents a value of 3 or above)	E (E represents a pKi value of 7 or below (Ki of 100 nM or above))	B (B represents a pC50 value between 6.7 (included) and 7.5 (IC50 between 200 nM and 32 nM))	A (A represents a value below 5×10^−6 cm/sec)
C=CC(=O)N1CCN(CCn2c(=O)ccc3cnc(Nc4ccc(N5CCN(C(=O)OC)CC5)cc4)nc32)[C@@H](C)C1 [Example 172]	E (E represents a pKi value of 7 or below (Ki of 100 nM or above))	E (E represents a pKi value of 7 or below (Ki of 100 nM or above))	B (B represents pKi value between 9 and 10 (Ki between 1 nM and 0.1 nM))	A (A represents a value of 3 or above)	E (E represents a pKi value of 7 or below (Ki of 100 nM or above))	A (A represents a pIC50 value≥7.5 (IC50≤32 nM))	C (C represents a value between 10×10^−6 and 30×10^−6 cm/sec)
C=CC(=O)N1CC(CCn2c(=O)ccc3cnc(Nc4ccc(N5CCN(C(=O)CS(C)(=O)=O)CC5)cc4)nc32)C1 [Example 151]	E (E represents a pKi value of 7 or below (Ki of 100 nM or above))	E (E represents a pKi value of 7 or below (Ki of 100 nM or above))	B (B represents pKi value between 9 and 10 (Ki between 1 nM and 0.1 nM))	A (A represents a value of 3 or above)	E (E represents a pKi value of 7 or below (Ki of 100 nM or above))	C (C represents a pIC50 value between 6 and 6.7 (IC50 between 1 μM and 200 nM))	A (A represents a value below 5×10^−6 cm/sec)
